# Assay results reported in ChEMBL document CHEMBL3867432, “Autophagy regulates Selumetinib (AZD6244) induced-apoptosis in colorectal cancer cells” (Eur J Med Chem, 2016).
# Active and inactive are the calls of the source. The calls are words filed in the database; no cut-off is given here.
# Tests used:
# [1] = Cell cycle arrest in human SW480 cells assessed as accumulation at subG1 phase at 10 uM after 48 hrs by propidium iodide staining based flow cytometry (reference value: 5.7 to 15.3%); assay type: functional
# [2] = system: HT-29; assay: Induction of apoptosis in human HT-29 cells assessed as apoptotic cells at 10 uM after 48 hrs in presence of autophagy inhibitor bafilomycin A1 by annexin V-FITC/propidium iodide staining based flow cytometry (reference value: 15.7 to 19.6%); assay type: functional
# [3] = system: SW480; assay: Induction of apoptosis in human SW480 cells assessed as increase in LC3-2 level at 10 uM after 48 hrs in presence of autophagy inhibitor bafilomycin A1 by Western blot analysis; assay type: functional, cell-based
# [4] = system: SW480; assay: Induction of apoptosis in human SW480 cells assessed as apoptotic cells at 10 uM after 48 hrs in presence of autophagy inducer rapamycin by annexin V-FITC/propidium iodide staining based flow cytometry (reference value: 9.6 to 15.3%); assay type: functional
# [5] = system: SW480; assay: Induction of apoptosis in human SW480 cells assessed as accumulation at subG1 phase at 10 uM after 48 hrs in presence of pan caspase inhibitor zVAD by Annexin-V-FITC/propidium iodide staining based flow cytometry (reference value: 15.3%); assay type: functional
# [6] = system: SW480; assay: Induction of apoptosis in human SW480 cells assessed as apoptotic cells at 1 uM after 48 hrs by annexin V-FITC/propidium iodide staining based flow cytometry (reference value: 10.6%); assay type: functional
# [7] = system: HT-29; assay: Induction of apoptosis in human HT-29 cells assessed as apoptotic cells at 10 uM after 48 hrs in presence of autophagy inhibitor CQ by annexin V-FITC/propidium iodide staining based flow cytometry (reference value: 15.7 to 19.6%); assay type: functional
# [8] = system: SW480; assay: Induction of apoptosis in human SW480 cells assessed as apoptotic cells at 10 uM after 48 hrs in presence of autophagy inhibitor CQ by annexin V-FITC/propidium iodide staining based flow cytometry (reference value: 9.6 to 15.3%); assay type: functional
# [9] = Cell cycle arrest in human SW480 cells after 48 hrs by propidium iodide staining based flow cytometry; assay type: functional
# [10] = system: SW480; assay: Induction of apoptosis in human SW480 cells after 48 hrs by annexin V-FITC/propidium iodide staining based flow cytometry; assay type: functional, cell-based
# [11] = system: SW480; assay: Induction of apoptosis in human SW480 cells assessed as apoptotic cells at 10 uM after 48 hrs by annexin V-FITC/propidium iodide staining based flow cytometry (reference value: 9.6 to 15.3%); assay type: functional
# [12] = Antiproliferative activity against human SW480 cells after 72 hrs by MTT assay; assay type: functional, cell-based; conditions: SW480, 72 h
# [13] = system: SW480; assay: Induction of apoptosis in human SW480 cells assessed as apoptotic cells at 3 uM after 48 hrs by annexin V-FITC/propidium iodide staining based flow cytometry (reference value: 10.6%); assay type: functional
# [14] = system: SW480; assay: Induction of apoptosis in human SW480 cells assessed as accumulation at subG1 phase at 10 uM after 48 hrs in presence of autophagy inducer rapamycin by propidium iodide staining based flow cytometry (reference value: 5.7 to 15.3%); assay type: functional
# [15] = system: SW480; assay: […] of autophagy in human SW480 cells expressing mCherry-eGFPeLC3 assessed as accumulation of autophagosomes at 10 uM after 2 hrs by confocal microscopic analysis; assay type: functional, cell-based
# [16] = system: SW480; assay: Induction of apoptosis in human SW480 cells assessed as necrotic cells at 1 uM after 48 hrs by annexin V-FITC/propidium iodide staining based flow cytometry (reference value: 2.8%); assay type: functional
# [17] = system: SW480; assay: Induction of autophagy in human SW480 cells assessed as increase in LC3-2 level at 10 uM after 1 to 4 hrs by Western blot analysis; assay type: functional, cell-based
# [18] = system: SW480; assay: Induction of apoptosis in human SW480 cells assessed as necrotic cells at 10 uM after 48 hrs by annexin V-FITC/propidium iodide staining based flow cytometry (reference value: 2.8%); assay type: functional
# [19] = Cell cycle arrest in human SW480 cells assessed as accumulation at subG1 phase at 1 uM after 48 hrs by propidium iodide staining based flow cytometry (reference value: 5.7%); assay type: functional
# [20] = Cell cycle arrest in human SW480 cells assessed as accumulation at G1 phase at 1 uM after 48 hrs by propidium iodide staining based flow cytometry (reference value: 61.2%); assay type: functional
# [21] = system: SW480; assay: Induction of apoptosis in beclin-1 silenced human SW480 cells assessed as apoptotic cells at 10 uM after 48 hrs by annexin V-FITC/propidium iodide staining based flow cytometry (reference value: 14.4%); assay type: functional
# [22] = Cell cycle arrest in human SW480 cells assessed as accumulation at subG1 phase at 3 uM after 48 hrs by propidium iodide staining based flow cytometry (reference value: 5.7%); assay type: functional
# [23] = system: SW480; assay: Induction of apoptosis in human SW480 cells assessed as necrotic cells at 3 uM after 48 hrs by annexin V-FITC/propidium iodide staining based flow cytometry (reference value: 2.8%); assay type: functional
# [24] = system: SW480; assay: Induction of apoptosis in human SW480 cells assessed as apoptotic cells at 10 uM after 48 hrs in presence of autophagy inhibitor bafilomycin A1 by annexin V-FITC/propidium iodide staining based flow cytometry (reference value: 9.6 to 15.3%); assay type: functional
# [25] = system: HT-29; assay: Induction of apoptosis in human HT-29 cells assessed as apoptotic cells at 10 uM after 48 hrs by annexin V-FITC/propidium iodide staining based flow cytometry (reference value: 15.7 to 19.6%); assay type: functional
# [26] = Cell cycle arrest in human SW480 cells assessed as accumulation at G1 phase at 10 uM after 48 hrs by propidium iodide staining based flow cytometry (reference value: 61.2%); assay type: functional
# [27] = system: SW480; assay: Induction of apoptosis in human SW480 cells assessed as apoptotic cells at 10 uM after 48 hrs in presence of autophagy inhibitor 3-MA by annexin V-FITC/propidium iodide staining based flow cytometry (reference value: 9.6 to 15.3%); assay type: functional
# [28] = Cell cycle arrest in human SW480 cells assessed as accumulation at G1 phase at 3 uM after 48 hrs by propidium iodide staining based flow cytometry (reference value: 61.2%); assay type: functional
structure (smiles),measurement,setting,value
Cn1cnc2c(F)c(Nc3ccc(Br)cc3Cl)c(C(=O)NOCCO)cc21 [SELUMETINIB],Activity,[1],23.7 to 42.9%
same,Activity,[2],68.3%
same,Activity,[3],Active
same,Activity,[4],21.4%
same,Activity,[5],24.1%
same,Activity,[6],17.4%
same,Activity,[7],58.6%
same,Activity,[8],55.4%
same,Activity,[9],Dose-dependent effect
same,Activity,[10],Dose-dependent effect
same,Activity,[11],29 - 42.9%
same,IC50,[12],0.422 µM
same,Activity,[13],23.1%
same,Activity,[14],11.9%
same,inhibition,[15],Active
same,Activity,[16],4.2%
same,Activity,[17],Active
same,Activity,[18],5.3%
same,Activity,[19],10%
same,Activity,[20],75%
same,Activity,[21],53.3%
same,Activity,[22],17.8%
same,Activity,[23],4.9%
same,Activity,[24],64.9%
same,Activity,[25],43.9 - 51.2%
same,Activity,[26],58%
same,Activity,[27],41.1%
same,Activity,[28],59.6%
